Data published in patent US10150760B2, “Compounds for use in preparing heterocyclic triazole agonists of the APJ receptor” (AMGEN INC., priority 2016, dated 2018).

Target: human APJ receptor (Homo sapiens (Human), UniProt P35414)
Assay: [35S]GTPγS binding assay on membranes from CHO cells stably expressing human APJ receptor
Format: biochemical
Details: read-out: Activity hAPJ SPA EC50 IP
Summary of the method: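 Membranes from CHO cells stably expressing human APJ incubated with ligand, 0.2 nM [35S]GTPγS and WGA SPA beads in HEPES pH 7.5 with 5 mM MgCl2, 200 mM NaCl, 3 μM GDP, 90 min at RT. Nonspecific binding defined with 100 μM GTPγS; EC50 by non-linear regression.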

Sequence of human APJ receptor (P35414 whole entry): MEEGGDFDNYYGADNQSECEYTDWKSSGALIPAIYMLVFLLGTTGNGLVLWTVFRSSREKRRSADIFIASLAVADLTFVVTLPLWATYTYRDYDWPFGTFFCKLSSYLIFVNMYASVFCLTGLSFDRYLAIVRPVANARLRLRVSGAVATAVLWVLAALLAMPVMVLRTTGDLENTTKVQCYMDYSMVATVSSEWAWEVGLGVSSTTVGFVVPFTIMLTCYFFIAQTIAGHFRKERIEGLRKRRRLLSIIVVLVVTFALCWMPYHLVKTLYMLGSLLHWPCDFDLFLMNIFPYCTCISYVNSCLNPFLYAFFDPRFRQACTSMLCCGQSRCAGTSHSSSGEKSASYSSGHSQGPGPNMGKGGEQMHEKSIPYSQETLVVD

Row | SMILES | EC50 [nM]
1 | COc1cccc(OC)c1-n1c(NS(=O)(=O)[C@@H](C)[C@@H](OC(C)C)c2ncc(C)cn2)nnc1[C@H]1CCOC1 (single isomer, unassigned) [Example 100.0, (1S,2S)-N-(4-(2,6-dimethoxyphenyl)-5-((R)-tetrahydrofuran-3-yl)-4H-1,2,4-triazol-3-yl)-1-isopropoxy-1-(5-methylpyrimidin-2-yl)propane-2-sulfonamide or (1S,2S)-N-(4-(2,6-dimethoxyphenyl)-5-((S)-tetrahydrofuran-3-yl)-4H-1,2,4-triazol-3-yl)-1-isopropoxy-1-(5-methylpyrimidin-2-yl)propane-2-sulfonamide] | 24
2 | COc1ncnc(OC)c1-n1c(NS(=O)(=O)[C@@H](C)[C@H](C)c2ncc(Cl)cn2)nnc1[C@H]1CCCOC1 (single isomer, unassigned) [Example 101.0, (2S,3R)-3-(5-chloropyrimidin-2-yl)-N-(4-(4,6-dimethoxypyrimidin-5-yl)-5-((S)-tetrahydro-2H-pyran-3-yl)-4H-1,2,4-triazol-3-yl)butane-2-sulfonamide or (2S,3R)-3-(5-chloropyrimidin-2-yl)-N-(4-(4,6-dimethoxypyrimidin-5-yl)-5-((R)-tetrahydro-2H-pyran-3-yl)-4H-1,2,4-triazol-3-yl)butane-2-sulfonamide] | 260
3 | COc1ncnc(OC)c1-n1c(NS(=O)(=O)[C@@H](C)[C@H](C)c2cnc(C)cn2)nnc1[C@H]1CCCO1 (single isomer, unassigned) [Example 104.0, (2S,3R)-N-(4-(4,6-dimethoxypyrimidin-5-yl)-5-((S)-tetrahydrofuran-2-yl)-4H-1,2,4-triazol-3-yl)-3-(5-methylpyrazin-2-yl)butane-2-sulfonamide or (2S,3R)-N-(4-(4,6-dimethoxypyrimidin-5-yl)-5-((R)-tetrahydrofuran-2-yl)-4H-1,2,4-triazol-3-yl)-3-(5-methylpyrazin-2-yl)butane-2-sulfonamide] | 330
4 | COc1ncnc(OC)c1-n1c(NS(=O)(=O)[C@@H](C)[C@H](C)c2cnc(C)cn2)nnc1[C@H]1CCCO1 (single isomer, unassigned) [Example 105.0, (2S,3R)-N-(4-(4,6-dimethoxypyrimidin-5-yl)-5-((S)-tetrahydrofuran-2-yl)-4H-1,2,4-triazol-3-yl)-3-(5-methylpyrazin-2-yl)butane-2-sulfonamide or (2S,3R)-N-(4-(4,6-dimethoxypyrimidin-5-yl)-5-((R)-tetrahydrofuran-2-yl)-4H-1,2,4-triazol-3-yl)-3-(5-methylpyrazin-2-yl)butane-2-sulfonamide] | 88
5 | COc1cccc(OC)c1-n1c(NS(=O)(=O)[C@@H](C)[C@H](C)c2cnc(C)cn2)nnc1[C@H]1CCCCO1 (single isomer, unassigned) [Example 106.0, (2S,3R)-N-(4-(2,6-dimethoxyphenyl)-5-((S)-tetrahydro-2H-pyran-2-yl)-4H-1,2,4-triazol-3-yl)-3-(5-methylpyrazin-2-yl)butane-2-sulfonamide or (2S,3R)-N-(4-(2,6-dimethoxyphenyl)-5-((R)-tetrahydro-2H-pyran-2-yl)-4H-1,2,4-triazol-3-yl)-3-(5-methylpyrazin-2-yl)butane-2-sulfonamide] | 53
6 | COc1cccc(OC)c1-n1c(NS(=O)(=O)[C@@H](C)[C@H](C)c2cnc(C)cn2)nnc1[C@H]1CCCCO1 (single isomer, unassigned) [Example 107.0, (2S,3R)-N-(4-(2,6-dimethoxyphenyl)-5-((S)-tetrahydro-2H-pyran-2-yl)-4H-1,2,4-triazol-3-yl)-3-(5-methylpyrazin-2-yl)butane-2-sulfonamide or (2S,3R)-N-(4-(2,6-dimethoxyphenyl)-5-((R)-tetrahydro-2H-pyran-2-yl)-4H-1,2,4-triazol-3-yl)-3-(5-methylpyrazin-2-yl)butane-2-sulfonamide] | 5.1
7 | COc1cccc(OC)c1-n1c(NS(=O)(=O)[C@@H](C)[C@H](OC)c2ncc(Cl)cn2)nnc1[C@H]1CCC(C)(C)O1 (single isomer, unassigned) [Example 108.0, (1R,2S)-1-(5-chloropyrimidin-2-yl)-N-(4-(2,6-dimethoxyphenyl)-5-((S)-5,5-dimethyltetrahydrofuran-2-yl)-4H-1,2,4-triazol-3-yl)-1-methoxypropane-2-sulfonamide or (1R,2S)-1-(5-chloropyrimidin-2-yl)-N-(4-(2,6-dimethoxyphenyl)-5-((R)-5,5-dimethyltetrahydrofuran-2-yl)-4H-1,2,4-triazol-3-yl)-1-methoxypropane-2-sulfonamide] | 25
8 | COc1cccc(OC)c1-n1c(NS(=O)(=O)[C@@H](C)[C@H](OC)c2ncc(Cl)cn2)nnc1[C@H]1CCC(C)(C)O1 (single isomer, unassigned) [Example 109.0, (1R,2S)-1-(5-chloropyrimidin-2-yl)-N-(4-(2,6-dimethoxyphenyl)-5-((S)-5,5-dimethyltetrahydrofuran-2-yl)-4H-1,2,4-triazol-3-yl)-1-methoxypropane-2-sulfonamide or (1R,2S)-1-(5-chloropyrimidin-2-yl)-N-(4-(2,6-dimethoxyphenyl)-5-((R)-5,5-dimethyltetrahydrofuran-2-yl)-4H-1,2,4-triazol-3-yl)-1-methoxypropane-2-sulfonamide] | 0.16
9 | CO[C@H](c1ncc(Cl)cn1)[C@H](C)S(=O)(=O)Nc1nnc([C@H]2CCCO2)n1C1(C)CC1 (single isomer, unassigned) [Example 110.0, (1R,2S)-1-(5-chloropyrimidin-2-yl)-1-methoxy-N-(4-(1-methylcyclopropyl)-5-((S)-tetrahydrofuran-2-yl)-4H-1,2,4-triazol-3-yl)propane-2-sulfonamide or (1R,2S)-1-(5-chloropyrimidin-2-yl)-1-methoxy-N-(4-(1-methylcyclopropyl)-5-((R)-tetrahydrofuran-2-yl)-4H-1,2,4-triazol-3-yl)propane-2-sulfonamide] | 30
10 | CO[C@H](c1ncc(Cl)cn1)[C@H](C)S(=O)(=O)Nc1nnc([C@H]2CCCO2)n1C1(C)CC1 (single isomer, unassigned) [Example 111.0, (1R,2S)-1-(5-chloropyrimidin-2-yl)-1-methoxy-N-(4-(1-methylcyclopropyl)-5-((S)-tetrahydrofuran-2-yl)-4H-1,2,4-triazol-3-yl)propane-2-sulfonamide or (1R,2S)-1-(5-chloropyrimidin-2-yl)-1-methoxy-N-(4-(1-methylcyclopropyl)-5-((R)-tetrahydrofuran-2-yl)-4H-1,2,4-triazol-3-yl)propane-2-sulfonamide] | 240
11 | CO[C@H](c1ncc(Cl)cn1)[C@H](C)S(=O)(=O)Nc1nnc([C@H]2CCCCO2)n1C1(C)CC1 (single isomer, unassigned) [Example 113.0, (1R,2S)-1-(5-chloropyrimidin-2-yl)-1-methoxy-N-(4-(1-methylcyclopropyl)-5-((S)-tetrahydro-2H-pyran-2-yl)-4H-1,2,4-triazol-3-yl)propane-2-sulfonamide or (1R,2S)-1-(5-chloropyrimidin-2-yl)-1-methoxy-N-(4-(1-methylcyclopropyl)-5-((R)-tetrahydro-2H-pyran-2-yl)-4H-1,2,4-triazol-3-yl)propane-2-sulfonamide] | 260
